6 molecules from ChEMBL document CHEMBL1130651, “Synthesis of novel C7-aryl substituted pyrrolo[2,1-c][1,4]benzodiazepines (PBDs) via pro-N10-Troc protection and Suzuki coupling” (Bioorg Med Chem Lett, 1998) can be followed below.

SMILES strings stand for the structures.

In one assay the test system is A2780. The assay can be described thus: Compound was evaluated for cytotoxicity against A2780 cell line. In kind it is functional, cell-based. To be noted: Homo sapiens.
The next assay concerns CH1. Kind of assay: Compound was evaluated for cytotoxicity against CH1 cell line. In kind it is functional, cell-based. As to conditions: Homo sapiens.

`COc1ccc(-c2ccc3c(c2)C(=O)N2CCC[C@H]2C=N3)cc1`: the IC50 in the assay on A2780 was 560 nM; in the assay on CH1, 1350 nM.

Turning to `O=C1c2cc(-c3ccc(F)cc3)ccc2N=C[C@@H]2CCCN12`, the IC50 with A2780 amounted to 660 nM; with CH1, 4700 nM.

As to `COc1ccccc1-c1ccc2c(c1)C(=O)N1CCC[C@H]1C=N2`, the values for the IC50 with A2780 and in the assay with CH1 were 1180 nM and 4800 nM, respectively.

As to `Cc1ccc(-c2ccc3c(c2)C(=O)N2CCC[C@H]2C=N3)cc1`, the IC50 with A2780 was 580 nM; in the assay on CH1 it was 1500 nM.

Consider `O=C1c2cc(-c3ccccc3)ccc2N=C[C@@H]2CCCN12`, for which the IC50 in the assay with A2780 came out at 1150 nM; with CH1, 1500 nM.

Consider `O=C1c2cc(-c3cccc([N+](=O)[O-])c3)ccc2N=C[C@@H]2CCCN12`, for which the IC50 with A2780 amounted to 34500 nM; in the assay with CH1 it was 22500 nM.

What is called IC50 is the concentration at which inhibition is half-maximal.
